{"source": "patent US11780934B2", "about": "“Use of inhibitors of ADAM12 as adjuvants in tumor therapies” (INSTITUT PASTEUR, priority 2016, dated 2023)", "tested_on": "ADAM12+ CAFs", "test": "Depletion of ADAM12+ CAFs by diphtheria toxin in M12-DTR mice bearing murine melanoma (MO5)", "type": "in vivo, mouse", "key": {"[1]": {"conditions": "M12-DTR+DT vs tumors with normal stroma, melanoma"}}, "note": "“Also recorded” adds a separate entry of the source.", "data": [{"substance": "diphtheria toxin [DT]", "values": [{"measurement": "depletion of ADAM12+ CAFs", "setting": "M12-DTR mice, DT ip starting at day 9 or 10 after melanoma cell inoculation", "value": "specifically depleted"}, {"measurement": "density of CD31+ vessels inside the tumors", "setting": "M12-DTR+DT vs control (DTR negative) mice, melanoma, immunofluorescence, two or three weeks after inoculation", "value": "higher density"}, {"measurement": "tumor perfusion (positive area of Hoechst 33342 staining)", "setting": "M12-DTR+DT vs control mice, melanoma, Hoechst 33342 iv", "value": "increased perfusion"}, {"measurement": "activation of CD31+ vessels (ICAM1+)", "setting": "M12-DTR+DT vs control mice, melanoma, immunofluorescence", "value": "activated ICAM1+ phenotype"}, {"measurement": "tumor growth", "setting": "M12-DTR+DT vs mice with normal tumor stroma, murine melanoma model", "value": "significantly delayed; also recorded: decrease in tumor growth"}, {"measurement": "frequency of CD3+ T cells in tumor", "setting": "[1]", "value": "significantly higher frequency; also recorded: higher T cells (CD3+) infiltration"}, {"measurement": "percentage of myeloid-derived suppressor cells (MDSC) and T-regulator cells (Tregs)", "setting": "[1]", "value": "remained unchanged"}, {"measurement": "ratio of M1/M2 macrophages", "setting": "[1]", "value": "increased ratio"}, {"measurement": "location of CD3+ T cells in tumor", "setting": "M12-DTR+DT vs tumors with normal stroma, melanoma, histology", "value": "recruited to the core of the tumor"}]}]}
